Format in all cases: biochemical
Assay [1] deals with 320 wild-type protein kinases (Homo sapiens, UniProt Q9NYL2). The conditions noted are these: kinase ZAK, singlicate. The text has this:
(§1) Table S4. Profiling of two compounds at two concentrations against 320 wild-type protein kinases; singlicate measurement; Residual activities (% of control).

Assay [2] addresses T1, 320 wild-type protein kinases (Homo sapiens, UniProt P25098).
T1 sequence (P25098 1-689): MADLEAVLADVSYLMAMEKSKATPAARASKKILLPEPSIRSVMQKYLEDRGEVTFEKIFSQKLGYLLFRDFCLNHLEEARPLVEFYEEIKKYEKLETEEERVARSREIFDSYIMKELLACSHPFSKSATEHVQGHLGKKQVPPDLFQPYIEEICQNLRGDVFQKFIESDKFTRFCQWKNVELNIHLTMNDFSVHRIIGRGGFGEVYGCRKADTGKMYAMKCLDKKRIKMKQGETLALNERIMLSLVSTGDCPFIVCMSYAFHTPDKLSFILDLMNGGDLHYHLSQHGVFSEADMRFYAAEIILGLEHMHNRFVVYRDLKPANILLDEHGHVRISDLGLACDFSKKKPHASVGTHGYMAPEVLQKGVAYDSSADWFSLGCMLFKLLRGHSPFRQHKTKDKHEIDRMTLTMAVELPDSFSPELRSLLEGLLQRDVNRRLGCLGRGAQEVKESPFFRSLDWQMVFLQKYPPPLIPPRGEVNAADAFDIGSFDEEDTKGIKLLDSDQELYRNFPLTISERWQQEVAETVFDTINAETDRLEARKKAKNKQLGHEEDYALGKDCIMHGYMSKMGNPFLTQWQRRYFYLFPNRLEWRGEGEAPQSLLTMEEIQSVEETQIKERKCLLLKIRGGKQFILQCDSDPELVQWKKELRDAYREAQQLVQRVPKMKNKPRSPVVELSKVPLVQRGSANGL
Particulars: singlicate.
Text: as §1

Assay [3] has as its target 320 wild-type protein kinases (Homo sapiens, UniProt O75716). The conditions noted are these: kinase TSF1, singlicate.
Text: as §1

Assay [4] has as its target 320 wild-type protein kinases (Homo sapiens, UniProt Q9Y463). The conditions noted are these: DYRK1B, singlicate.
Text: as §1

The target of assay [5] is T2, 320 wild-type protein kinases (Homo sapiens, UniProt Q9UEE5).
T2 sequence (Q9UEE5 1-414): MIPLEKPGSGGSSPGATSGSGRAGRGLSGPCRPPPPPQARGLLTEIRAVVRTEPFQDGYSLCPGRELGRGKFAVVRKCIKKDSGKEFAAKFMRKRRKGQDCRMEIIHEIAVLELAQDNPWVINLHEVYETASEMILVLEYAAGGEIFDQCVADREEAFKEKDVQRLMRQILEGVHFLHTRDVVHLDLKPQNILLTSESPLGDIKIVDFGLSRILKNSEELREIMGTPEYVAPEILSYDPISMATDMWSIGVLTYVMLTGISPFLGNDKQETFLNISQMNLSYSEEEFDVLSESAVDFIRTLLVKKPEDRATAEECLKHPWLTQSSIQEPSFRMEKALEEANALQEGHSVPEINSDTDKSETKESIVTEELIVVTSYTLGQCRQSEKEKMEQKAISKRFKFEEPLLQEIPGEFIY
Particulars: kinase STK17A, singlicate.
Text: as §1

The target of assay [6] is 320 wild-type protein kinases (Homo sapiens, UniProt P29376). The conditions noted are these: LTK, singlicate.
320 wild-type protein kinases (Homo sapiens, UniProt P29376), sequence (P29376 17-864): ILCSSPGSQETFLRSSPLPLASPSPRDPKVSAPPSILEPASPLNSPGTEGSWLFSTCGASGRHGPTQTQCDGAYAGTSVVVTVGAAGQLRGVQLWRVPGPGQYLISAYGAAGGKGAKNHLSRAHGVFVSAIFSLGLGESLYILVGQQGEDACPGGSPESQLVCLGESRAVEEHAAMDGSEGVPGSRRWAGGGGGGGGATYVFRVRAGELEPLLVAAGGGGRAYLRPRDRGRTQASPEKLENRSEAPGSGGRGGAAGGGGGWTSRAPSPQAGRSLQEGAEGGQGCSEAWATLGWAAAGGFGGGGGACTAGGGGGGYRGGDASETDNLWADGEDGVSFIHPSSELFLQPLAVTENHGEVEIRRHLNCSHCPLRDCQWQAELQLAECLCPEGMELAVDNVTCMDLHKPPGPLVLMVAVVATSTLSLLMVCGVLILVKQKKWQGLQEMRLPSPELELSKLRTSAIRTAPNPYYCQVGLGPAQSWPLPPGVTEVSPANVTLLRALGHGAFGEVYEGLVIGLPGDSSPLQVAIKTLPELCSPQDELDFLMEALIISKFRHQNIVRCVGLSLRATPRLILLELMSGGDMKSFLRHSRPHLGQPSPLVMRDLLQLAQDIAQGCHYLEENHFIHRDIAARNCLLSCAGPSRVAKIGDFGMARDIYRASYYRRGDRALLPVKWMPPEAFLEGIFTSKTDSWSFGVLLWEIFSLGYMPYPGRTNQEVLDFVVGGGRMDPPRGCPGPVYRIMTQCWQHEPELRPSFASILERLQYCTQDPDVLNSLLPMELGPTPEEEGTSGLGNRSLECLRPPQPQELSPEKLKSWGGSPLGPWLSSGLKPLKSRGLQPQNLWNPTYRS
Text: as §1

Assay [7] addresses T3, 320 wild-type protein kinases (Homo sapiens, UniProt Q08881).
T3 sequence (Q08881 1-620): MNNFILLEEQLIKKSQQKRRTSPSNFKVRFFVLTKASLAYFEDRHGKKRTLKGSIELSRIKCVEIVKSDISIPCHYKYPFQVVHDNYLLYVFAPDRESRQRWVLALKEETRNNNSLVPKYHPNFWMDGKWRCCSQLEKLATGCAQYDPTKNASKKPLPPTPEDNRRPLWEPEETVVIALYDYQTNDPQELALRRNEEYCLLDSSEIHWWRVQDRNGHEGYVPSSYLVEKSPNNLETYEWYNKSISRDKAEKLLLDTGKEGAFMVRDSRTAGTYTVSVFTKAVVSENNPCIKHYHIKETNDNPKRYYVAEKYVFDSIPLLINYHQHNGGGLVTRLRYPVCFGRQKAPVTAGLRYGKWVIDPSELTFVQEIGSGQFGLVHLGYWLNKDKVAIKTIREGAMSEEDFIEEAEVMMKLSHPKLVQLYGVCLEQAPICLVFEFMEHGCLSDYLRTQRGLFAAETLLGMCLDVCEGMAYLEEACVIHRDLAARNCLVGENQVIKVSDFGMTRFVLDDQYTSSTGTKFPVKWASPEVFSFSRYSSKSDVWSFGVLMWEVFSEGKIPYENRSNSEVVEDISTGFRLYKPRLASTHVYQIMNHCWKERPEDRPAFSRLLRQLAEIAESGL
Particulars: ITK, singlicate.
Text: as §1

For assay [8], the target named is 320 wild-type protein kinases (Homo sapiens, UniProt Q00536). Particulars: CDK16/CycY, singlicate.
320 wild-type protein kinases (Homo sapiens, UniProt Q00536), sequence (Q00536 whole entry): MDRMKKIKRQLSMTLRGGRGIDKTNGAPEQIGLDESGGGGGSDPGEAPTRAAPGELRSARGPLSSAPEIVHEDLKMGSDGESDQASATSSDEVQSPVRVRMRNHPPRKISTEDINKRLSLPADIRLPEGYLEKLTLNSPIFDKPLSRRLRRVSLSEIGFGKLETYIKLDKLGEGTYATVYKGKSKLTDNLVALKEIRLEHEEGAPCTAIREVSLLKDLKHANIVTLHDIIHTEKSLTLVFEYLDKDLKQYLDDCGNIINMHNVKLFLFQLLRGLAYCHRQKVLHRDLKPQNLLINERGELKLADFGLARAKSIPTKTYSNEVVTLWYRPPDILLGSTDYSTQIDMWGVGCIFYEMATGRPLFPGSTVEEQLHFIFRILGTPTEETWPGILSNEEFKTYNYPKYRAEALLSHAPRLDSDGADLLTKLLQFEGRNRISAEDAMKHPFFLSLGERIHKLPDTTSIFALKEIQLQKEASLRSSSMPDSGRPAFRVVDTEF
Text: as §1

Assay [9] has as its target 320 wild-type protein kinases (Homo sapiens, UniProt P12931). The conditions noted are these: kinase SRC (GST-HIS-tag), singlicate.
Text: as §1

SMILES strings stand for the structures. Read-outs that look alike come from different tables or passages of the source.

320 wild-type protein kinases (Homo sapiens, UniProt P12931), sequence (P12931 whole entry): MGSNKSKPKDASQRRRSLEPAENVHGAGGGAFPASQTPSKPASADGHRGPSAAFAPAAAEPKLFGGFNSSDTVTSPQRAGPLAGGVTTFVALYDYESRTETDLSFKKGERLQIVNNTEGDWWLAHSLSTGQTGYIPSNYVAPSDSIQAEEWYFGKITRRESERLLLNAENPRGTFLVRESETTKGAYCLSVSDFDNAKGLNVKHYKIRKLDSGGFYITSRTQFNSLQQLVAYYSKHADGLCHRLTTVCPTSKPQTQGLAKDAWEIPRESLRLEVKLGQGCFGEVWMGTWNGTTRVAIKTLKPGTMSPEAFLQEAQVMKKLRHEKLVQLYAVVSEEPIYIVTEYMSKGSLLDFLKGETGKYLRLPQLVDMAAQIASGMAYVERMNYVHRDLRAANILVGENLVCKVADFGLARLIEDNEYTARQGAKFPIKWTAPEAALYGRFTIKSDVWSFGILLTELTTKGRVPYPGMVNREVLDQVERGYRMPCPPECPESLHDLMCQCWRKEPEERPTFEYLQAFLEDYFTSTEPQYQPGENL
320 wild-type protein kinases (Homo sapiens, UniProt Q9NYL2), sequence (Q9NYL2 whole entry): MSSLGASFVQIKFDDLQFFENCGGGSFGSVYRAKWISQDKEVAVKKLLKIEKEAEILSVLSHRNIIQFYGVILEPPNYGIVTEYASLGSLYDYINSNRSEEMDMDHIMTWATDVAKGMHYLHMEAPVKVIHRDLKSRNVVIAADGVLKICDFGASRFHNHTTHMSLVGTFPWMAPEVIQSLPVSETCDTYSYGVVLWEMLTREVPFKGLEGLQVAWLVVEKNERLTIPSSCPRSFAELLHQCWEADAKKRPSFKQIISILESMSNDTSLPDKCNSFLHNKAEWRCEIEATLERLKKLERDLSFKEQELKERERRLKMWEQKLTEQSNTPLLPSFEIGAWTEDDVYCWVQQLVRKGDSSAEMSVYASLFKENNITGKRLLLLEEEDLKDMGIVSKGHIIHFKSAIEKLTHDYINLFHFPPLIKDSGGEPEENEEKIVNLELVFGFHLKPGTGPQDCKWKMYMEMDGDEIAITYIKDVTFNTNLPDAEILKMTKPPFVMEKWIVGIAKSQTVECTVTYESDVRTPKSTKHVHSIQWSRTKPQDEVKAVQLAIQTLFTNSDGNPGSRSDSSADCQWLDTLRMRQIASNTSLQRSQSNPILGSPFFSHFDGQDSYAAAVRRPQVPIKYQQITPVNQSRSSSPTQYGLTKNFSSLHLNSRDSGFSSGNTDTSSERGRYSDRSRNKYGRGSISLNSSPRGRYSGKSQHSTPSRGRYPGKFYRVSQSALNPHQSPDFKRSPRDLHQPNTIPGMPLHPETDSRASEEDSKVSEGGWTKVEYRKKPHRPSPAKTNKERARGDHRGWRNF
320 wild-type protein kinases (Homo sapiens, UniProt Q9Y463), sequence (Q9Y463 whole entry): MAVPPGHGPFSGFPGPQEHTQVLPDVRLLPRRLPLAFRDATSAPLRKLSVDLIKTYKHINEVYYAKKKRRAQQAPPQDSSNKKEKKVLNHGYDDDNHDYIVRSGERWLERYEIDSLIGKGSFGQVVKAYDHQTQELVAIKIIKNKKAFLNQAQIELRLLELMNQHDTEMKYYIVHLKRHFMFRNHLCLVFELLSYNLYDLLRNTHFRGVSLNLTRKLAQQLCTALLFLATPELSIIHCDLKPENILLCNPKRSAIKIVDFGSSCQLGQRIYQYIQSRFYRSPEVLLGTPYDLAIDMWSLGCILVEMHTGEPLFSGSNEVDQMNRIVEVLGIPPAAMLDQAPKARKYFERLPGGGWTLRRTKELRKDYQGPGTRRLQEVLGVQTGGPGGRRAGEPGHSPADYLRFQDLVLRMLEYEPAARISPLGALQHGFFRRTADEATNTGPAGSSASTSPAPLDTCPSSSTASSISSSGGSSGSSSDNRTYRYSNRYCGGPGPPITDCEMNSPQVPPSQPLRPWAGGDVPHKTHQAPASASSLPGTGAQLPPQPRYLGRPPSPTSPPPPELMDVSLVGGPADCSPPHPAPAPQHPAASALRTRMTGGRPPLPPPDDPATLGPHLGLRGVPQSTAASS
320 wild-type protein kinases (Homo sapiens, UniProt O75716), sequence (O75716 whole entry): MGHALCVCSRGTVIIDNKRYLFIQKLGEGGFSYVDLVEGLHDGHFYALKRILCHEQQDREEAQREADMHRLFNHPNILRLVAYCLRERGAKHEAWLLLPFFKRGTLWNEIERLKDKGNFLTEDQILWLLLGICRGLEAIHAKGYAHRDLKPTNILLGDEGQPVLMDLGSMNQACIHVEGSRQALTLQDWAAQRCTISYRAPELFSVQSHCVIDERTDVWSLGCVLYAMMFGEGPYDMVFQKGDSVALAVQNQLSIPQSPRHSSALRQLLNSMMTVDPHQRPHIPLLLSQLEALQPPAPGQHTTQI

As to `C#Cc1cc(Nc2ncnc3cc(OC)c(OC)cc23)ccc1Cl` [Compound 45], the “Residual activity, ZAK” value is recorded as 80 % of control in assay [1] (assay conc. 1.0E-06 M) and 100 % of control in [1] (assay conc. 1.0E-07 M). Also, the Residual activity in assay [2] (GRK2, 1.0E-06 M) is 111 % of control; in assay [2] (GRK2, 1.0E-07 M) it was 96 % of control; in assay [4] (1.0E-06 M), 111 % of control; in [4] (1.0E-07 M), 105 % of control; in assay [6] (1.0E-06 M), 54 % of control; in [6] (1.0E-07 M), 100 % of control. Besides, the Residual activity in assay [7] (1.0E-06 M) is recorded as 99 % of control; in [7] (1.0E-07 M), 88 % of control; in assay [8] (1.0E-06 M), 90 % of control; in assay [8] (1.0E-07 M), 86 % of control. The “Residual activity, TSF1” value is reported as 104 % of control in [3] (assay conc. 1.0E-06 M) and 95 % of control in [3] (assay conc. 1.0E-07 M). Moreover, the figures for the “Residual activity, STK17A” value in assay [5] (assay conc. 1.0E-06 M) and in [5] (assay conc. 1.0E-07 M) were 83 % of control and 102 % of control, respectively. The “Residual activity, SRC (GST-HIS-tag)” value in assay [9] (assay conc. 1.0E-06 M) is 90 % of control; in assay [9] (assay conc. 1.0E-07 M), 100 % of control.
Turning to `C#Cc1cc(Nc2ncnc3cc(I)ccc23)ccc1Cl` [Compound 41], the “Residual activity, ZAK” value is given as 85 % of control in assay [1] (assay conc. 1.0E-06 M) and 98 % of control in assay [1] (assay conc. 1.0E-07 M). The Residual activity in assay [2] (GRK2, 1.0E-06 M) was 117 % of control; in assay [2] (GRK2, 1.0E-07 M), 104 % of control; in [4] (1.0E-06 M) it was 90 % of control; in assay [4] (1.0E-07 M), 116 % of control; in assay [6] (1.0E-06 M) it was 77 % of control; in assay [6] (1.0E-07 M) it was 106 % of control. For the same molecule, the Residual activity in assay [7] (1.0E-06 M) is reported as 107 % of control; in assay [7] (1.0E-07 M) it was 99 % of control; in assay [8] (1.0E-06 M), 84 % of control; in [8] (1.0E-07 M), 84 % of control. Besides, the entries for the “Residual activity, TSF1” value in assay [3] (assay conc. 1.0E-06 M) and in assay [3] (assay conc. 1.0E-07 M) were 94 % of control and 93 % of control, respectively. The “Residual activity, STK17A” value in assay [5] (assay conc. 1.0E-06 M) is 103 % of control; in assay [5] (assay conc. 1.0E-07 M), 104 % of control. Moreover, the “Residual activity, SRC (GST-HIS-tag)” value in assay [9] (assay conc. 1.0E-06 M) is recorded as 86 % of control; in [9] (assay conc. 1.0E-07 M), 108 % of control.

These data come from paper PMC9329436, “Optimization of the 4-anilinoquin(az)oline scaffold as epidermal growth factor receptor (EGFR) inhibitors for chordoma utilizing a toxicology profiling assay platform” (Scientific Reports, 2022).
